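96-well plates; 48 h exposure; 5 concentrations. Endpoints by linear interpolation between flanking doses. Not reached: highest tested concentration assigned. Abbreviation: GI50, concentration required for 50% inhibition of growth.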 Active and inactive are the calls of the source. Cut-off read from the data, not from the text of the source: active = GI50 up to about 1.1 µM and inactive = higher. Bounds are passed on as bounds.

Test systems include DU-145; HCC 2998; HOP-62; IGROV-1; LOX IMVI; M14; MDA-MB-435; MOLT-4; Malme-3M; NCI-H23; NCI-H460; OVCAR-3; OVCAR-8; RXF 393; SF-539; SK-MEL-5; U-251; UACC-62.
What all share (assay): NCI anticancer screen, dose series, 48 h

Take `CCOC(=O)Oc1ccc2c(c1)c(=O)c1c(NCCN(CC)CC)ccc3nnn2c31`: the GI50 is 1.89 µM (inactive) in the assay with DU-145; 2.94 µM (inactive) in the assay with HCC 2998; 1.24 µM (inactive) in the assay with HOP-62; 0.519 µM (active) in the assay with IGROV-1; 1.18 µM (inactive) with LOX IMVI; 5.2 µM (inactive) in the assay with M14. In addition, the GI50 with MDA-MB-435 was 3.67 µM (inactive); in the assay with MOLT-4, < 0.0166 µM (active); in the assay with Malme-3M, 2.78 µM (inactive); in the assay on NCI-H23, 2.48 µM (inactive); with NCI-H460, < 0.0209 µM (active); in the assay with OVCAR-3, 4.46 µM (inactive). For the same compound, the GI50 was 0.577 µM (active) in the assay with OVCAR-8; 6.08 µM (inactive) with RXF 393; 0.748 µM (active) in the assay on SF-539; 1.7 µM (inactive) in the assay on SK-MEL-5; 1.73 µM (inactive) in the assay with U-251; 11.5 µM (inactive) with UACC-62.
With `C[N+]1(C)C2Cc3ccccc3C1Cc1ccccc12`, the GI50 in the assay with DU-145, in the assay with HCC 2998, in the assay on HOP-62, in the assay with IGROV-1, with LOX IMVI and with M14 was > 100 µM (inactive) each time. Further, the GI50 in the assay with MDA-MB-435 was > 100 µM (inactive); in the assay with MOLT-4, > 100 µM (inactive); in the assay with Malme-3M it was > 100 µM (inactive); with NCI-H23, > 100 µM (inactive); in the assay with NCI-H460, > 100 µM (inactive); with OVCAR-3, 90.8 µM (inactive). In addition, the GI50 with OVCAR-8 is > 100 µM (inactive); in the assay with RXF 393, > 100 µM (inactive); with SF-539, > 100 µM (inactive); with SK-MEL-5, > 100 µM (inactive); in the assay with U-251, > 100 µM (inactive); in the assay on UACC-62, 71.6 µM (inactive).
Turning to `Cc1ccc(/N=N/c2ccc(O)c(CN(C)C)c2)cc1C`, the GI50 in the assay on DU-145 is 29.5 µM (inactive); in the assay with HCC 2998, 16.4 µM (inactive); with HOP-62, 15.5 µM (inactive); with IGROV-1, 21.3 µM (inactive); with LOX IMVI it was 10.5 µM (inactive); in the assay with M14, 33 µM (inactive). The GI50 in the assay on MDA-MB-435 was 18.7 µM (inactive); with MOLT-4 it was 16.6 µM (inactive); in the assay on Malme-3M, 19.1 µM (inactive); in the assay on NCI-H23 it was 70.3 µM (inactive); with NCI-H460, 19.1 µM (inactive); in the assay on OVCAR-3, 15.6 µM (inactive). In addition, the GI50 in the assay with OVCAR-8 was 37.2 µM (inactive); in the assay on RXF 393, 17.5 µM (inactive); in the assay on SF-539 it was 19.5 µM (inactive); with SK-MEL-5, 15.1 µM (inactive); in the assay on U-251, 34.6 µM (inactive); in the assay on UACC-62, 17.1 µM (inactive).
On to `O=[N+]([O-])c1cccc(-c2nc(-c3ccccc3)c(-c3ccccc3)[nH]2)c1`, for which the GI50 in the assay with DU-145, with HCC 2998, in the assay with HOP-62, in the assay on IGROV-1, with LOX IMVI and with M14 was > 100 µM (inactive) in each case. Besides, the GI50 in the assay with MDA-MB-435, with MOLT-4, in the assay on Malme-3M, in the assay with NCI-H23, with NCI-H460 and with OVCAR-3 was > 100 µM (inactive) throughout. Moreover, the GI50 in the assay with OVCAR-8, in the assay with RXF 393, in the assay with SF-539, in the assay with SK-MEL-5, with U-251 and with UACC-62 was > 100 µM (inactive) in each case.
For the compound `COc1ccc(Cc2nc3cc(Cl)ccc3o2)cc1`, the GI50 with DU-145 was 38.8 µM (inactive); in the assay with HCC 2998 it was 20.8 µM (inactive); with HOP-62 it was > 100 µM (inactive); in the assay with IGROV-1, 63 µM (inactive); in the assay with LOX IMVI it was 23.5 µM (inactive); with M14, 32.2 µM (inactive). Moreover, the GI50 in the assay with MDA-MB-435 was 22.1 µM (inactive); in the assay with MOLT-4, 18.8 µM (inactive); in the assay with Malme-3M, 26.7 µM (inactive); in the assay on NCI-H23, 29.2 µM (inactive); with NCI-H460 it was 31.2 µM (inactive); in the assay on OVCAR-3, 27 µM (inactive). Also, the GI50 with OVCAR-8 is 40.8 µM (inactive); in the assay on RXF 393, 22.6 µM (inactive); with SF-539, 45.1 µM (inactive); with SK-MEL-5, 14.5 µM (inactive); with U-251, 27.1 µM (inactive); in the assay on UACC-62, 60 µM (inactive).
On to `N/C(=N\Nc1cccc(Cl)c1)c1cccnc1`, for which the GI50 in the assay on DU-145 was 82.2 µM (inactive); in the assay on HCC 2998, 36 µM (inactive); in the assay with HOP-62, > 100 µM (inactive); with IGROV-1, 70.6 µM (inactive); in the assay on LOX IMVI, 50 µM (inactive); in the assay with M14, 17.1 µM (inactive). The GI50 in the assay with MDA-MB-435 was 2.72 µM (inactive); with MOLT-4, 28.3 µM (inactive); in the assay with Malme-3M it was 97.9 µM (inactive); in the assay with NCI-H23 it was 43.5 µM (inactive); in the assay on NCI-H460, 35.2 µM (inactive); with OVCAR-3 it was 13.5 µM (inactive). Also, the GI50 is > 78.3 µM (inactive) in the assay on OVCAR-8; 23.1 µM (inactive) in the assay on RXF 393; 30.2 µM (inactive) in the assay with SF-539; 32.9 µM (inactive) in the assay with SK-MEL-5; 41.8 µM (inactive) in the assay on U-251; 22.8 µM (inactive) with UACC-62.
`CO[C@@H]1C[C@H](OC(N)=O)[C@@H]2C=C[C@@H]3/C=C(C)/C=C/[C@@H](C)[C@H](/C(C)=C/[C@@H](C)NC(C)=O)OC(=O)/C=C/C=C(C)\C=C\[C@]3(C)[C@@H]2C1` [SUPERSTOLIDE B]: the GI50 in the assay on DU-145, in the assay on HCC 2998, with HOP-62, with IGROV-1, with LOX IMVI and in the assay on M14 was < 0.005 µM (active) each time. In addition, the GI50 in the assay on MDA-MB-435 was < 0.005 µM (active); in the assay with MOLT-4, 0.31 µM (active); in the assay with Malme-3M, < 0.005 µM (active); in the assay on NCI-H23, < 0.005 µM (active); in the assay with NCI-H460, < 0.005 µM (active); with OVCAR-3, < 0.005 µM (active). For the same compound, the GI50 in the assay on OVCAR-8 is 0.00607 µM (active); in the assay with RXF 393 it was < 0.005 µM (active); in the assay on SF-539, < 0.005 µM (active); in the assay on SK-MEL-5, < 0.005 µM (active); in the assay with U-251, < 0.005 µM (active); in the assay on UACC-62, < 0.005 µM (active).
With `CC(=O)N(CN1C(=O)CCC1C(=O)O)c1ccccc1Cl` (centres undefined), the GI50 with DU-145, in the assay on HCC 2998, with HOP-62, in the assay on IGROV-1, in the assay on LOX IMVI and with M14 was > 100 µM (inactive) each time. Moreover, the GI50 in the assay on MDA-MB-435, with MOLT-4, in the assay with Malme-3M, with NCI-H23, with NCI-H460 and in the assay on OVCAR-3 was > 100 µM (inactive) each time. Moreover, the GI50 with OVCAR-8, in the assay with RXF 393, in the assay with SF-539, with SK-MEL-5, in the assay on U-251 and in the assay on UACC-62 was > 100 µM (inactive) in each case.

The values are drawn from ChEMBL document CHEMBL1201862, “PubChem BioAssay data set” (2004).
